Test results from EP3409278B1, “HETEROCYCLIC PROTEIN KINASE INHIBITORS” (Tolero Pharmaceuticals, Inc., priority 2011, dated 2013).
Like-named read-outs stand apart in the source and are kept apart here.

Assays:
hERG = hERG (Homo sapiens, UniProt Q12809); test: hERG Fast Patch assay (WuXiApptec)
Pim-1 kinase = Pim-1 kinase (Homo sapiens, UniProt P11309); test: Pim-1 kinase inhibition assay (Promega Kinase-Glo); format: biochemical
Text: One illustrative manner in which Pim-1 kinase activity can be determined is by quantifying the amount of ATP remaining in solution after an in vitro Pim-1 kinase reaction. The Kinase-Glo Assay Kit (Promega, Inc., Madison, WI) allows this. The amount of ATP remaining in the solution after the kinase reaction serves as a substrate for the luciferase to catalyze luciferin to oxyluciferin plus one photon of light. Thus, the luminescent signal read by the Luminoskan Ascent Instrument (Thermo Electron Corp., Milford, MA) correlates with the amount of ATP present after the kinase reaction and inversely correlates with the amount of kinase acitivity. […] These assays are set up in duplicate 50ul volumes in white, flat bottom 96 well plates. […] This solution is incubated at 30 degrees Celsius at 360rpm for two hours. Following the incubation, 50ul of Kinase-Glo reagent is added to each well, including all positive and negative control wells, and incubated at room temperature for 15 minutes. […] The IC50 values can then be calculated for each inhibitor tested.

MOLM-13 = test: In vitro viability assay, MOLM-13; format: cell-based
Protocol: (§1) Adherent or suspension cancer cell lines were seeded at 2000-5000 cells/well in a 96-well plate, or 1000-2000 cells/well in a 384-well plate. Suspension cells were treated with drug the same day as seeding, while adherent cells were incubated overnight at 37°Cin 5% CO2 prior to drug treatment. All cells were treated for 72 hours, then lysed with ATPlite (Perkin Elmer) and measured on an Envision microplate reader. IC50 values were determined using GraphPad Prism software.
(§2) Over 35 cell lines were tested, and the most sensitive cell lines from various indications were selected and verified by multiple EC50 determinations (Figure 6). […] Antiproliferative activity using PIM-2 shRNA against FLT3-ITD driven leukemia lines has been observed (Adam (2006) Cancer Res 66:3828-35 data not shown).

MV-4-11 = test: In vitro viability assay, MV-4-11; format: cell-based
Protocol: as §1, §2

[1] = Table IV, Kinase-Glo, 10uM ATP, read-out: IC50 on Pim1
[2] = Table V, Kinase-Glo, 10uM ATP, read-out: IC50 on Pim1
[3] = Table V, cells that print µM, read-out: IC50 on Pim1

Chain of hERG (Q12809 whole entry): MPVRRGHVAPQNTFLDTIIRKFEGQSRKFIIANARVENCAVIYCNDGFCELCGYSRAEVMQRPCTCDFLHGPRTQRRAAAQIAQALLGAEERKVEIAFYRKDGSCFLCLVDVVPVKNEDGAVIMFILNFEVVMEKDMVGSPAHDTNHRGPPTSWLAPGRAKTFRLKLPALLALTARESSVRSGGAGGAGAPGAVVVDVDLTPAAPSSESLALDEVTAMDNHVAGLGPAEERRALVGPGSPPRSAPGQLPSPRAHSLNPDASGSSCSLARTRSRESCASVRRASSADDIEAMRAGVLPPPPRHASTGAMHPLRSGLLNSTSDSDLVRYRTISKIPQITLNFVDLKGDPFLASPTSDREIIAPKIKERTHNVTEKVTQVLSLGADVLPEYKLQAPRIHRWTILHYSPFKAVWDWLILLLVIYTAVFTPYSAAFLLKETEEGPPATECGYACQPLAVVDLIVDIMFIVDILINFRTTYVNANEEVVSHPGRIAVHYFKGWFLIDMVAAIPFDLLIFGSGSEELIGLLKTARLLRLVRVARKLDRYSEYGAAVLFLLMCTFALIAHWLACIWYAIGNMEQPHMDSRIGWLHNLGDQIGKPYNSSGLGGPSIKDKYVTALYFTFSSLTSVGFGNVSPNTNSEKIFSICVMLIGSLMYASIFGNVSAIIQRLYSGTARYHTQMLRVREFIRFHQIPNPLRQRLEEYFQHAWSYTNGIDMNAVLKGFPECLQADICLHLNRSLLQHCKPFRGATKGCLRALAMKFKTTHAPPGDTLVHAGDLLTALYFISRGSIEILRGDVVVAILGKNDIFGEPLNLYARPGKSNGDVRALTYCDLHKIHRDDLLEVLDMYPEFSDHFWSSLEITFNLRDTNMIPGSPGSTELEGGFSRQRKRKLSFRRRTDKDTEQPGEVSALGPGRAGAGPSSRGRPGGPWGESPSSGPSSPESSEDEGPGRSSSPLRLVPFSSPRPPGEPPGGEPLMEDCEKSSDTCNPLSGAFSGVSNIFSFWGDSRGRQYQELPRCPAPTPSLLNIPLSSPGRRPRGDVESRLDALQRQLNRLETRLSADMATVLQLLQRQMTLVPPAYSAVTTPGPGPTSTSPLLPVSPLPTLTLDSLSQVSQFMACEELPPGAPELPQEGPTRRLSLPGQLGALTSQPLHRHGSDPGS
Chain of Pim-1 kinase (P11309 whole entry): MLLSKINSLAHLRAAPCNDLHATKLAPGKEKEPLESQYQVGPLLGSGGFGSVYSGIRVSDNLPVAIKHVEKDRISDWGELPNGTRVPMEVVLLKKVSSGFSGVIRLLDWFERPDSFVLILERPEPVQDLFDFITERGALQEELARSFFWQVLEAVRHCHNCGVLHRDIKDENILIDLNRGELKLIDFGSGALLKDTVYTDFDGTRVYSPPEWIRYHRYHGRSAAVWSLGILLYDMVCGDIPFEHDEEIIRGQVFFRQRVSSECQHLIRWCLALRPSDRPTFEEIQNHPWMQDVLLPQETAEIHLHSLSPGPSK

SMILES | IC50 (Pim-1 kinase; [1]) | IC50 (Pim-1 kinase; [2]) | also measured
C[C@]1(O)CC[C@H](Nc2ccc3ncc(-c4cccc(OC(F)(F)F)c4)n3n2)CC1 [8-9, 1-Methyl-4-((3-(3-(trifluoromethoxy)phenyl)imidazo[1,2-b]pyridazin-6-yl)amino)-trans-cyclohexanol] |  |  | IC50 (hERG): 26000 nM
CC(C)(O)[C@H]1CC[C@H](Nc2ccc3ncc(-c4cccc(OC(F)(F)F)c4)n3n2)CC1 [8-10] | 0.009 µM |  | IC50 (hERG): > 30000 nM
O=S1(=O)CCC(CNc2ccc3ncc(-c4cccc(OC(F)(F)F)c4)n3n2)CC1 [8-13, 4-(((3-(3-(Trifluoromethoxy)phenyl)imidazo[1,2-b]pyridazin-6-yl)amino)methyl)tetrahydro-2H-thiopyran 1,1-dioxide] | 0.058 µM |  | IC50 (hERG): 10000 nM
CO[C@H]1CC[C@H](Nc2ccn3ncc(-c4cccc(Cl)c4)c3n2)CC1 [8-64, 3-((3-Chlorophenyl)-N-4-methoxy-trans-cyclohexyl)pyrazolo[1,5-a]pyrimidin-5-amine] | 0.068 µM |  | IC50 (hERG): > 30000 nM
O=S1(=O)CCC(CNc2ccn3ncc(-c4cccc(Cl)c4)c3n2)CC1 [8-66, 4-(((3-(3-Chlorophenyl)pyrazolo[1,5-a]pyrimidin-5-yl)amino)methyl)tetrahydro-2H-thiopyran 1.1-dioxide] | 0.164 µM |  | 
CN1CCC(CNc2ccn3ncc(-c4cccc(OC(F)(F)F)c4)c3n2)CC1 [8-67, N-((1-Methylpiperidin-4-yl)methyl)-3-(3-(trifluoromethoxy)phenyl)pyrazolo[1,5-a]pyrimidin-5-amine] | 0.045 µM |  | 
N[C@H]1CC[C@H](Nc2ccc3ncc(-c4cccc(Cl)c4)n3n2)CC1 [8-68, N1-(3-(3-Chlorophenyl)imidazo[1,2-b]pyridazin-6-yl)cyclohexane-1,4-trans-diamine] | 0.004 µM |  | 
NC1CCCC(Nc2ccc3ncc(-c4cccc(Cl)c4)n3n2)C1 (stereo not shown) [8-70, N^1-(3-(3-chlorophenyl)imidazo[1,2-b]pyridazin-6-yl)cyclohexane-1,3-diamine] | 0.008 µM |  | 
N[C@H]1CCCN(c2ccc3ncc(-c4cccc(Cl)c4)n3n2)C1 [8-71, (S)-1-(3-(3-chlorophenyl)imidazo[1,2-b]pyridazin-6-yl)piperidin-3-amine] | 0.012 µM |  | 
CC(C)(O)[C@H]1CC[C@H](Nc2ccc3ncc(-c4cccc(F)c4)n3n2)CC1 [8-75, 2-(trans-4-((3-(3-fluorophenyl)imidazo[1,2-b]pyridazin-6-yl)amino)cyclohexyl)propan-2-ol] | 0.056 µM |  | 
ON=C1CCC(Nc2ccc3ncc(-c4cccc(Cl)c4)n3n2)CC1 (stereo not shown) [8-92, 4-((3-(3-chlorophenyl)imidazo[1,2-b]pyridazin-6-yl)amino)cyclohexanone oxime] | 0.038 µM |  | 
N[C@H]1CCCN(c2ccn3ncc(-c4cccc(Cl)c4)c3n2)C1 [8-96, (S)-1-(3-(3-chlorophenyl)pyrazolo[1,5-a]pyrimidin-5-yl)piperidin-3-amine] | 0.094 µM |  | 
CC(C)(O)[C@H]1CC[C@H](Nc2ccc3nnc(-c4cccc(OC(F)(F)F)c4)n3c2)CC1 [8-101] |  | 0.488 µM | 
FC(F)(F)Oc1cccc(-c2nnc3ccc(NC4CCOCC4)cn23)c1 [8-102, N-(Tetrahydro-2H-pyran-4-yl)-3-(3-(trifluoromethoxy)phenyl)-[1,2,4]triazolo[4,3-a]pyridin-6-amine] |  | 3.25 µM | 
O=S1(=O)CCC(CNc2ccc3nnc(-c4cccc(OC(F)(F)F)c4)n3c2)CC1 [8-103, 4-(((3-(3-(Trifluoromethoxy)phenyl)-[1,2,4]triazolo[4,3-a]pyridin-6-y/)amino)methyl)tetrahydro-2H-thiopyran 1,1-dioxide] |  | 3.8 µM | 
O[C@H]1CC[C@H](Nc2ccc3nnc(-c4cccc(OC(F)(F)F)c4)n3c2)CC1 [8-104, 4-((3-(3-(Trifluoromethoxy)phenyl)-[1,2,4]triazolo[4,3-a]pyridin-6-yl)amino)-trans-cyclohexanol] |  | 0.684 µM | 
FC(F)(F)Oc1cccc(-c2nnc3ccc(N[C@H]4CC[C@@H](Br)CC4)cn23)c1 [8-105, 4-(cis-Bromocyclohexyl)-3-(3-(trifluoromethoxy)phenyl)-(1,2,4]triazolo[4,3-a]pyridin-6-amine] |  | 2.49 µM | 
O[C@H]1CC[C@H](Nc2ccc3nnc(-c4cccc(C(F)(F)F)c4)n3c2)CC1 [8-107, 4-((3-(3-(Trifluoromethyl)phenyl)-[1,2,4]triazolo[4,3-a]pyridin-6-yl)amino)-trans-cyclohexanol] |  | 3.95 µM | 
CC(C)(O)[C@H]1CC[C@H](Nc2ccc3nnc(-c4cccc(C(F)(F)F)c4)n3c2)CC1 [8-109] |  | 3.87 µM | 
FC(F)(F)c1cccc(-c2nnc3ccc(NC4CCOCC4)cn23)c1 [8-110, N-(Tetrahydro-2H-pyran-4-y/)-3-(3-(trifluoromethy/)pheny/)-[1,2,4]triazolo[4,3-a]pyridin-6-amine] |  | 3.17 µM | 
O=S1(=O)CCC(CNc2ccc3nnc(-c4cccc(C(F)(F)F)c4)n3c2)CC1 [8-111] |  |  | IC50 (Pim-1 kinase; [3]): > 30 µM
OCCOc1ccc2nnc(-c3cccc(C(F)(F)F)c3)n2c1 [8-112, 2-((3-(3-(trifluoromethyl)phenyl)-[1,2,4]triazolo[4,3-a]pyridin-6-yl)oxy)ethanol] |  |  | IC50 (Pim-1 kinase; [3]): > 30 µM
CC(C)(O)[C@H]1CC[C@H](Nc2ccc3ncc(-c4cccc(C(F)(F)F)c4)n3n2)CC1 [SGI-9481] |  |  | sensitivity in viability assay (MOLM-13): particularly sensitive; sensitivity in viability assay (MV-4-11): particularly sensitive
